“Also recorded” adds a separate entry of the source.
How the values were obtained:
Type in all cases: in vivo, mouse
[1] = Serum triglyceride and cholesterol level measurements, HFD-fed mice (Examples 11-15); details: mice fed HFD 4 months, drug in drinking water (AC261066 1.5 mg/100 ml)
Method: AC261066(Lund et al., Discovery of a potent, orally available, and isoform-selective retinoic acid beta2 receptor agonist. J Med Chem. 2005; 48(24):7517-9) and CD1530 (Thacher et al. Therapeutic applications for ligands of retinoid receptors. Curr Pharm Des. 2000; 6(1):25-58) was dissolved in dimethyl sulfoxide (DMSO) at the concentration of 1.5 mg/ml for AC261066 and 2.5 mg/ml for CD1530, and diluted in the drinking water for mice to the final concentration of 1.5 mg/100 ml and 2.5 mg/100 ml, respectively.
(§1) WT male C57/BL6 male mice were maintained on either a standard laboratory chow-fed diet (Con) with 13% kcal fat, (diet #5053, Lab Diet, Inc, St. Louis, Mo.) or a high fat, western style diet (HFD) with 45% kcals from fat, (diet #58126, Lab Diet, Inc., St. Louis, Mo.) for 4 months. One month after the start of the HFD treatment, the HFD group was further split into 3 groups for 3 months: i) HFD and the drinking water containing 1% DMSO; ii) high fat diet (HFD) and drinking water containing 1.5 mg/100 ml AC261066, a specific RARβ agonist in 1% DMSO or iii) HFD and drinking water containing 1.5 mg/100 ml CD1530, a specific RARγ agonist in 1% DMSO. Then mice were sacrificed by cervical dislocation. Blood and various tissue samples were harvested.
The analysis of serum triglyceride levels was carried out using a bichromatic assay at the Laboratory of Comparative Pathology of the Memorial Sloan-Kettering Cancer Center. Chow-fed diet (Con) n=4; high fat diet (HFD) n=4; high fat diet (HFD)+AC261066 n=4; and high fat diet (HFD)+CD1530, n=4.

[2] = tested on: srebp1-c, fas, dgat1, fgf21, ppar-γ, sirt1, ppar-α, srebp-2, hmgcr, pepck mRNA; experiment: Q-RT-PCR of hepatic lipogenic, cholesterol and gluconeogenic genes, HFD-fed mice (Example 15)
Method: as §1
Total RNA was extracted from mouse tissues using TRIzol reagent (Life technologies) and (1 μg) was used to synthesize cDNA. cDNA synthesis was performed at 42° C. for 1 h in a final volume of 20 μl using qScript (Quanta, MD). Q-RTPCR was performed as previously described (15). Primers for gene expression used were as follows: […]

HF-fed C57/BL6 mice = experiment: Metabolic studies (body weight, GTT) in HF-fed wild type mice, 4 months; details: obese HF-fed mice, 3.0 mg/100 ml drinking water
Method: Mice, diet, and drug treatment. Dietary Obesity Studies: Wild type (wt) male C57/BL6 male mice were maintained on either a standard laboratory chow-fed diet (Con) with 13% kcal fat, (diet #5053, Lab Diet, Inc, St. Louis, Mo.) or a high fat, western style diet (HFD) with 45% kcals from fat, (diet #58126, Lab Diet, Inc., St. Louis, Mo.) for 4 months. […]
Metabolic Measurements-Glucose tolerance was performed using an intraperitoneal glucose tolerance test (GTT) as previously described (Trasino et al., Vitamin A Deficiency Causes Hyperglycemia and Loss of Pancreatic β-Cell Mass, J Biol Chem. 2014 Dec. 1. pii: jbc.M114.616763). […] Tail vein blood glucose was measured at 20, 40, 60 and 120 minutes after injection using a FreeStyle Lite Blood Glucose Monitoring System (Abbott Diabetes Care, Inc. Alameda, Calif.). To determine insulin secretion responses to glucose, serum fractions were isolated between 0-60 minutes post glucose injections and insulin concentrations were measured using an Ultrasensitive Insulin ELISA Kit (Alpco, Inc. Salem, N.H.). Random blood glucose measurements were taken from tail veins of 4 mice per group at 2-3 random time points daily Means are expressed as±standard error of the mean (S.E.M) and P-values were calculated using one-way analysis of variance followed by Bonferroni post-hoc analysis.

CCCCOCCOc1nc(-c2ccc(C(=O)O)c(F)c2)sc1C [AC261066]
serum cholesterol [1]: greatly reduces; also recorded: significantly lower
serum triglycerides [1]: greatly reduces; also recorded: significantly lower
hepatic gene expression of pepck [2]: not affected
hepatic mRNA levels of lipogenic proteins srebp1-c, fas, dgat1, fgf21, ppar-γ [2]: greatly reduces; also recorded: significantly reduced
hepatic mRNA levels of sirt1 and ppar-α [2]: prevented a large decrease
hepatic mRNA levels of srebp-2 and hmgcr [2]: significantly reduced
body weights (HF-fed C57/BL6 mice): significant reductions

O=C(O)c1ccc(-c2ccc3cc(O)c(C45CC6CC(CC(C6)C4)C5)cc3c2)cc1 [CD1530]
serum cholesterol [1]: no decrease
serum triglycerides [1]: no decrease
hepatic gene expression of pepck [2]: not affected
hepatic mRNA levels of srebp-2 and hmgcr [2]: not observed

From patent publication US20220304945A1, “METHODS OF TREATING METABOLIC SYNDROME RELATED CONDITIONS USING RETINOIC ACID RECEPTOR AGONISTS” (Cornell University, priority 2014, published 2022)
